Data as given in patent US20240165135A1, “COMPOSITIONS AND METHODS FOR THE TREATMENT OF CANCER” (The State of Israel, Ministry of Agriculture & Rural …, priority 2021, published 2024).
Marks after values point to notes of the source that are not given here.

Assays:
U87 cells = assay: 3D models (hydrogel) of U87 cells: colonies and Alamar Blue viability; type: cell-based, Human; conditions: U87 from 3D structures, 48 hours; Doxorubicin 2, F4 20, F4-SM 12.5, F5 16.5, F5-SM 10 μg/ml; control 98.52
Protocol: 3D models—Hydrogels (AGFCH) included Sigma-Aldrich products and were prepared using alginate (W201502; Sigma-Aldrich, USA) 22.5 mg/mL, gelatin (G9764; Bio-Basic, USA) 45 mg/mL, fibrinogen (F38791; Sigma-Aldrich, USA) 50 mg/mL, collagen (C9791; Sigma-Aldrich, USA) 2.2 mg/mL and hyaluronic acid (O8185; Sigma-Aldrich, USA) 2 mg/mL in PBS-glycerol solvent. The gel (AGFCH) was mixed with U87 cells at a concentration of 2×10^6 cells per 400 μL gel. The solutions were mixed gently and transferred as 25 μL of gel solution to a 24-well plate. 3D models were cross-linked using CaCl2 (A610050; Bio-Basic, USA) and thrombin (SRP6557; Sigma-Aldrich, USA) for 5 minutes, following the 3D structure was washed with PBS and then immersed in 1 mL of EMEM complete medium. Cells in the 3D structures were allowed to grow for 2 days and then the indicated treatments were administered for 8 days (treatments were repeated every 2 days). Structures were stained using EasyProbe Hoechst, as described above. To assess cell viability, the 3D structure was digested using 200 μL of 0.05M sodium citrate (C3434; Sigma-Aldrich, USA) and 0.05M EDTA (03-052-1A; Biological Industries, Israel) solution for 5 minutes. […] Percentage of colony in the different treatments was calculated out of average number of colonies in the control.

A172 cells = assay: F-actin staining, confocal imaging of A172 cytoskeleton; type: cell-based, Human; conditions: 24 hours; F4 12 μg/mL, F5 10 μg/mL, Doxo 0.5 μg/mL
Protocol: Cell staining—EasyProbes™ ActinRed 555 Stain was used for F-actin staining and Hoechst 33342 (ABP Biosciences, USA) for nuclei staining, according to the manufacturer's instructions. Briefly, cells were seeded on confocal dishes (D35-20-1.5-N, Cellvis, USA) at a density of 2×10^4 in 500 μL complete medium. Following 24 hours incubation, the indicated treatments at different concentrations were added for additional 24 hours. For the staining process, cells were washed with PBS and fixed with 3.7% formaldehyde solution in PBS and incubated at room temperature for 10 minutes followed by incubation in 0.1% Triton X-100 (T8787; Sigma Aldrich, USA) for 5 minutes, washing with PBS and incubation in 1% BSA (A7284; Sigma Aldrich, USA) solution for 30 minutes. Two drops of EasyProbes™ Actin and of Hoechst were applied to each of the samples for 20 minutes. […] The number of F-actin filaments was quantified as the number of filaments that crosse a line that is drawn electronically across the soma. Percentage of filaments in the different treatments was calculated out of the average number of filaments in the control.

COc1cccc2c1C(=O)c1c(O)c3c(c(O)c1C2=O)C[C@@](O)(C(=O)CO)C[C@@H]3O[C@H]1C[C@H](N)[C@H](O)[C@H](C)O1 [Doxorubicin]
Mean (% of Live cells) (U87 cells): 37.22 ± 3.08^c % | F-actin network / structures (A172 cells): less pronounced in comparison to that of F4 or F5
